This note sets out measurements from publication PMC8448677, “A novel assay based on pre-equilibrium titration curves for the determination of enzyme inhibitor binding kinetics” (European Biophysics Journal, 2021).

Starred links: 1 amine or outer side, 2 acyl side, 3 side chain; linkers in the order of their positions; H or OH if unused. Positions of bridges follow the written chain, without caps; N, C: chain ends. Non-standard residues stand in square brackets, D forms with d. Residues, ends and D or L forms follow the SMILES beside them. TBMB = c1c(C[*:1])cc(C[*:3])cc1C[*:2]; NMeR = CN[C@@H](CCCNC(=N)N)C(=O)O; hArg = N=C(N)NCCCC[C@H](N)C(=O)O; Aze = O=C(O)[C@@H]1CCN1; Sar = CNCC(=O)O

The target of the first assay is T1, Human PKal (plasma kallikrein) (Homo sapiens, UniProt P03952).
T1 construct: purchased Molecular Innovations HPKA
T1 sequence (P03952 391-638 limits assumed): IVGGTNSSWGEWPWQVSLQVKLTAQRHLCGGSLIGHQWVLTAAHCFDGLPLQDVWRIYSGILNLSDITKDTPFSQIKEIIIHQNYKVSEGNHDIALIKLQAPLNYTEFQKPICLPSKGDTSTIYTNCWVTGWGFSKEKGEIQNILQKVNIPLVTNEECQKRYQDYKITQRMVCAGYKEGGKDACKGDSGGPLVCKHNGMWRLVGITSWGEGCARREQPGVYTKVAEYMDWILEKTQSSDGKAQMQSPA
T1 sequence (P03952 20-390 partner limits assumed): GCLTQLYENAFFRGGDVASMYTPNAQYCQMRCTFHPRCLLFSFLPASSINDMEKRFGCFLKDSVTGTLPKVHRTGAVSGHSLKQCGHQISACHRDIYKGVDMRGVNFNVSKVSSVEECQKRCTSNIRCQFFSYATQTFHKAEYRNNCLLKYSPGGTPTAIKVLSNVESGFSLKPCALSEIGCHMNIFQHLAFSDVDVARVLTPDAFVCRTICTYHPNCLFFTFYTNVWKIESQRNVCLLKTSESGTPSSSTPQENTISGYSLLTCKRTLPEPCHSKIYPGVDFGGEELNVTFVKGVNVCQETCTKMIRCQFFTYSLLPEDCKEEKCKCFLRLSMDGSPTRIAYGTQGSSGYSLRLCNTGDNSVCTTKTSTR
Kind of assay: Pre-equilibrium titration curve inhibition assay of plasma kallikrein (fluorogenic substrate H-Pro-Phe-Arg-AMC, global fit with Eq. 7). The assay is classed as biochemical. The following applies: Ki = koff/kon from pre-equilibrium curves, 25 °C, pH 7.5, PKal 1 nM (0.25 nM for 4b), mean ± SD of at least 3 independent measurements, read-out: Ki. The procedure:
The TBMB-based bicyclic peptide inhibitors of PKal used in this study are listed in Table 1, some of which have been described previously (Teufel et al. [2018]). Experiments were performed at 25 °C in 20 mM Tris–HCl, 150 mM NaCl, 1 mM EDTA, 0.1% PEG-6000, 0.1% Triton X-100, pH 7.5. Human PKal (Molecular Innovations, cat. HPKA, typical nominal concentration 1 nM for all peptides except 0.25 nM for peptide 4b) was pre-incubated in 96-well plates with different concentrations of the tested peptide (typically a serial twofold dilution plus a control with no peptide) in a reaction volume of 90 µL. At different timepoints, the fluorogenic substrate H-Pro-Phe-Arg-AMC (Bachem, cat. I-1295.0050, 10 µL, 20 µM final) was added to the relevant wells, and the increase in fluorescence at 480 nm (with excitation at 360 nm) was recorded using a Spectramax M2e plate reader (Molecular Devices). Initial rates of substrate hydrolysis were obtained by linear fit of the raw fluorescence vs. time traces. In addition, fluorescence was recorded ensuring that no more than 10% of the substrate were hydrolyzed, and for periods of time (typically 30–60 s) short enough to obtain linear traces. The data were plotted as the initial rate of substrate hydrolysis vs. peptide concentration for the different times of incubation prior to substrate addition (as shown in Fig. 3) and analyzed using Eq. 7.
To compute unique values of kon and koff, data sets such as those of Fig. 3 must be analyzed “globally”, i.e., considering all pre-equilibrium inhibition curves as a unique data set, as allowed by modern nonlinear regression analysis software’s. In this study, we used GraphPad Prism ver. 5.02 (GraphPad Software Inc., La Jolla, CA) applying equal weighting (i.e., performing minimization based on absolute distances squared), and we invite the reader to consult the software’s user’s manual for a detailed description of how global fitting of such data sets can be performed (https://cdn.graphpad.com/faq/2/file/Prism_v5_Regression_Guide.pdf). One point to highlight is that the parameters kon, koff and E0 should be “shared”, to employ the terminology used in GraphPad Prism, i.e., that one unique value of these parameters is used to fit the data. […] As discussed previously for the analysis of data obtained under equilibrium, i.e., using Eq. 1 (see Teufel et al. [2018]), the term E0 in Eq. 7 can be treated as a shared but adjustable parameter or, as here, fixed to its known value. The terms v0, kon and koff, by contrast, always need to be treated as adjustable parameters. Finally, the knowledge of the kinetic parameters kon and koff enables calculation of the equilibrium inhibition constant Ki (Ki = koff/kon).
In the case of H-Pro-Phe-Arg-AMC, however, the Km for human PKal is large (Teufel et al. [2018]) and experiments were performed under conditions where [S] < < Km. Therefore, the values for kon, koff and Ki reported here can be considered as representing actual values.
As for `CC(=O)N[C@H]1CSCc2cc3cc(c2)CSC[C@H](NC(=O)[C@H](Cc2c[nH]c4ccccc24)NC(=O)[C@@H]2CCCN2C(=O)[C@H](CC(N)=O)NC(=O)[C@H](Cc2c[nH]c4ccccc24)NC(=O)[C@H]([C@@H](C)O)NC(=O)[C@H](CC(N)=O)NC1=O)C(=O)N1CCC[C@H]1C(=O)N[C@@H](Cc1c[nH]c2ccccc12)C(=O)N[C@@H](CC(=O)O)C(=O)N[C@@H](C)C(=O)N1CCC[C@H]1C(=O)N[C@@H](CC(C)C)C(=O)N[C@H](C(=O)N[C@@H](C)C(=O)N(C)CC(=O)N(C)CC(=O)N(C)CC(=O)N[C@H](CCCNC(=N)N)C(=O)N[C@H](CCCNC(=N)N)C(N)=O)CSC3` [Peptide 1b] (Ac-CNTWNPWCPWDAPLCA[Sar][Sar][Sar][dR][dR]-NH2; linker 1-8-15 via TBMB), the Ki (commonly the equilibrium dissociation constant of an inhibitor or competing ligand from its target) stood at 1.8 ± 0.2 nM.
Same read-out and setting: the figure for `CC(=O)N[C@H]1CSCc2cc3cc(c2)CSC[C@H](NC(=O)[C@H](CCCNC(=N)N)NC(=O)[C@H](C)NC(=O)[C@@H]2CCCN2C(=O)[C@H](Cc2c[nH]c4ccccc24)NC(=O)[C@H](CO)NC1=O)C(=O)N[C@@H](CC(C)C)C(=O)N[C@@H](Cc1c[nH]cn1)C(=O)N[C@@H](CCC(N)=O)C(=O)N[C@@H](CC(=O)O)C(=O)N[C@@H](CC(C)C)C(=O)N[C@H](C(N)=O)CSC3` [Peptide 2b] (Ac-CSWPARCLHQDLC-NH2; linker 1-7-13 via TBMB) is 0.1 ± 0.02 nM.
In the case of `CC(=O)N[C@H]1CSCc2cc3cc(c2)CSC[C@H](NC(=O)[C@H](CCCNC(=N)N)NC(=O)[C@H](Cc2ccc(O)cc2)NC(=O)[C@@H]2CCCN2C(=O)[C@H](Cc2ccccc2)NC(=O)[C@H](CO)NC1=O)C(=O)N[C@@H](CC(C)C)C(=O)N[C@@H](Cc1c[nH]cn1)C(=O)N[C@@H](CCC(N)=O)C(=O)N[C@@H](CC(=O)O)C(=O)N[C@@H](CC(C)C)C(=O)N[C@H](C(N)=O)CSC3` [Peptide 2c] (Ac-CSFPYRCLHQDLC-NH2; linker 1-7-13 via TBMB), the Ki amounted to 0.34 ± 0.04 nM.
For the compound `CC(=O)N[C@H]1CSCc2cc3cc(c2)CSC[C@H](NC(=O)[C@H](CCCCNC(=N)N)NC(=O)[C@H](Cc2ccc(O)cc2)NC(=O)[C@@H]2CCN2C(=O)[C@H](Cc2ccccc2)NC(=O)[C@H](CO)NC1=O)C(=O)N[C@@H](C)CN[C@@H](Cc1c[nH]cn1)C(=O)N[C@@H](CCC(N)=O)C(=O)N[C@@H](CC(=O)O)C(=O)N[C@@H](CC(C)C)C(=O)N[C@H](C(N)=O)CSC3` [Peptide 2d], the Ki worked out at 0.22 ± 0.04 nM.
Turning to `CC(=O)N[C@H]1CSCc2cc3cc(c2)CSC[C@H](NC(=O)[C@H](CCCNC(=N)N)NC(=O)[C@H](Cc2ccc(O)cc2)NC(=O)[C@@H]2CCCN2C(=O)[C@H](Cc2ccccc2)NC(=O)[C@H](CO)NC1=O)C(=O)N[C@@H](CC(C)C)C(=O)N[C@@H](Cc1c[nH]cn1)C(=O)N[C@@H](CCC(N)=O)C(=O)N[C@@H](CC(=O)O)C(=O)N[C@@H](CC(C)C)C(=O)N[C@H](C(N)=O)CSC3` [Peptide 5a] (Ac-CSFPYRCLHQDLC-NH2; linker 1-7-13 via TBMB), the Ki came out at 0.36 ± 0.06 nM.
Same read-out and setting: the figure for `CC(=O)N[C@H]1CSCc2cc3cc(c2)CSC[C@H](NC(=O)[C@H](CCCCNC(=N)N)NC(=O)[C@H](Cc2ccc(O)cc2)NC(=O)[C@@H]2CCCN2C(=O)[C@H](Cc2ccccc2)NC(=O)[C@H](CO)NC1=O)C(=O)N[C@@H](CC(C)C)C(=O)N[C@@H](Cc1c[nH]cn1)C(=O)N[C@@H](CCC(N)=O)C(=O)N[C@@H](CC(=O)O)C(=O)N[C@@H](CC(C)C)C(=O)N[C@H](C(N)=O)CSC3` [Peptide 5b] (Ac-CSFPY[hArg]CLHQDLC-NH2; linker 1-7-13 via TBMB) is 0.53 ± 0.07 nM; for `CC(=O)N[C@H]1CSCc2cc3cc(c2)CSC[C@H](NC(=O)[C@H](CCCCNC(=N)N)NC(=O)[C@H](Cc2ccc(O)cc2)NC(=O)[C@@H]2CCN2C(=O)[C@H](Cc2ccccc2)NC(=O)[C@H](CO)NC1=O)C(=O)N[C@@H](CC(C)C)C(=O)N[C@@H](Cc1c[nH]cn1)C(=O)N[C@@H](CCC(N)=O)C(=O)N[C@@H](CC(=O)O)C(=O)N[C@@H](CC(C)C)C(=O)N[C@H](C(N)=O)CSC3` [Peptide 5c] (Ac-CSF[Aze]Y[hArg]CLHQDLC-NH2; linker 1-7-13 via TBMB) it is 0.061 ± 0.027 nM; for `CC(=O)N[C@H]1CSCc2cc3cc(c2)CSC[C@H](NC(=O)[C@H](CCCNC(=N)N)N(C)C(=O)[C@H](Cc2ccc(O)cc2)NC(=O)[C@@H]2CCN2C(=O)[C@H](Cc2ccccc2)NC(=O)[C@H](CO)NC1=O)C(=O)N[C@@H](CC(C)C)C(=O)N[C@@H](Cc1c[nH]cn1)C(=O)N[C@@H](CCC(N)=O)C(=O)N[C@@H](CC(=O)O)C(=O)N[C@@H](CC(C)C)C(=O)N[C@H](C(N)=O)CSC3` [Peptide 5d] (Ac-CSF[Aze]Y[NMeR]CLHQDLC-NH2; linker 1-7-13 via TBMB) it is 0.55 ± 0.06 nM.

The assay is the same for the next values; noted with them: Ki, Ki = koff/kon from pre-equilibrium curves, 25 °C, pH 7.5, PKal 1 nM (0.25 nM for 4b), mean ± SD of at least 3 independent measurements.
Compound `CC[C@H](C)[C@@H]1NC(=O)[C@H](CC(=O)O)NC(=O)[C@@H]2CCCN2C(=O)[C@H](Cc2ccc(O)cc2)NC(=O)[C@H](Cc2ccc(O)cc2)NC(=O)[C@H](C(C)C)NC(=O)[C@@H]2CSCc3cc(cc(c3)CSC[C@@H](C(=O)N[C@@H](C)C(=O)N(C)CC(=O)N(C)CC(=O)N(C)CC(=O)N[C@H](CCCNC(=N)N)C(=O)N[C@H](CCCNC(=N)N)C(N)=O)NC1=O)CSC[C@H](NC(C)=O)C(=O)N[C@@H](CO)C(=O)N[C@@H](Cc1ccccc1)C(=O)N1CC[C@H]1C(=O)N[C@@H](Cc1ccc(O)cc1)C(=O)N[C@@H](CCCCNC(=N)N)C(=O)N2` [Peptide 4b] (Ac-CSF[Aze]Y[hArg]CVYYPDICA[Sar][Sar][Sar][dR][dR]-NH2; linker 1-7-14 via TBMB) registered an inhibition constant (Ki) of 0.14 ± 0.02 nM.
